Calls of active or inactive are those of the source. The rule behind the calls is not given here.
Experiments:
Mus musculus [1] = experiment: Anticoagulation activity in mouse infected with Methicillin-resistant Staphylococcus aureus assessed as increase in plasma AT-III expression at 10 mg/kg,ip administrated 5 hrs after bacterial infection measured after 24 hrs by ELISA; assay type: functional, organism-based; conditions: time 19.0 hrs
Neutrophil [2] = experiment: Induction of immune response in mouse bone marrow derived neutrophil assessed as neutrophil extracellular trap formation at 100 ug/ml incubated for 4 hrs by DAPI staining based fluorescence microscopic analysis; assay type: functional, cell-based; conditions: dose 100.0 µg/ml
Peritoneal macrophage [3] = experiment: Induction of chemotaxis in mouse Peritoneal macrophage assessed as upregulation of CXCL1 expression incubated for 6 hrs by ELISA; assay type: functional, cell-based
[4] = system: Peritoneal macrophage cell; experiment: Induction of chemotaxis in mouse Peritoneal macrophage assessed as increase in macrophage migration at 100 ug/ml preincubated with KN62 for 30 mins followed by compound addition measured after 8 hrs by crystal violet staining based indirect transwell assay; assay type: functional, cell-based; conditions: dose 100.0 µg/ml
Escherichia coli [5] = experiment: Antibacterial activity against Escherichia coli ATCC 25922 infected in C57BL/6 mouse assessed as reduction in IL-6 level in serum at 10 mg/kg,ip administrated 5 hrs after bacterial infection measured after 24 hrs by ELISA; assay type: functional, organism-based; conditions: time 19.0 hrs
[6] = system: Peritoneal macrophage cell; experiment: Induction of phagocytosis in mouse Peritoneal macrophage assessed as increase in neutral red dye uptake by measuring optical density absorbance at 100 ug/ml incubated for 24 hrs followed by dye addition measured after 4 hrs by absorbance based assay (reference value: 0.089); assay type: functional; conditions: dose 100 µg/ml; time 28 hrs
Escherichia coli [7] = experiment: Antimicrobial activity against Carbapenem-resistant Escherichia coli assessed as reduction in metabolic activity at < 200 ug/ml incubated for 1 to 4 hrs by CCK-8 assay; assay type: functional, organism-based; conditions: dose < 200.0 µg/ml, time 1-4 hrs
Escherichia coli [8] = experiment: Antibacterial activity against Escherichia coli ATCC 25922 infected in C57BL/6 mouse assessed as reduction in bacterial load at 10 mg/kg,ip administrated 5 hrs after bacterial infection; assay type: functional, organism-based
Staphylococcus aureus [9] = experiment: Antibacterial activity against Staphylococcus aureus ATCC 25923 infected in C57BL/6 mouse assessed as increase in survival rate at 10 mg/kg,ip administrated 5 hrs after bacterial infection measured after 7 days; assay type: functional, organism-based; conditions: time 7.0 day
Escherichia coli [10] = experiment: Antibacterial activity against Escherichia coli ATCC 25922 infected in C57BL/6 mouse assessed as increase in survival rate at 10 mg/kg,ip administrated 5 hrs after bacterial infection measured after 7 days; assay type: functional, organism-based; conditions: time 7.0 day
Peritoneal macrophage [11] = experiment: Immunoregulatory activity in mouse Peritoneal macrophage assessed as change in total p38 expression at 25 to 100 ug/ml incubated for 1 hr by Western blotting analysis; assay type: functional, cell-based; conditions: dose 25-100 µg/ml
[12] = system: Peritoneal macrophage cell; experiment: Induction of chemotaxis in mouse Peritoneal macrophage assessed as increase in macrophage migration at 100 ug/ml preincubated with MTS510 for 30 mins followed by compound addition measured after 8 hrs by crystal violet staining based indirect transwell assay; assay type: functional, cell-based; conditions: dose 100.0 µg/ml
[13] = system: Peritoneal macrophage cell; experiment: Induction of chemotaxis in mouse Peritoneal macrophage assessed as upregulation of CXCL1 production at 100 ug/ml preincubated with KN-62 followed by compound addition by ELISA; assay type: functional, cell-based; conditions: dose 100.0 µg/ml
Escherichia coli [14] = experiment: Antibacterial activity against Carbapenem-resistant Escherichia coli infected in C57BL/6 mouse assessed as increase in survival rate at 10 mg/kg,ip pre-administrated 5 hrs before bacterial infection measured after 7 days; assay type: functional, organism-based; conditions: time 7.0 day
Mus musculus [15] = experiment: Anticoagulation activity in mouse infected with Carbapenem-resistant Escherichia coli assessed as increase in plasma AT-III expression at 10 mg/kg,ip administrated 5 hrs after bacterial infection measured after 24 hrs by ELISA; assay type: functional, organism-based; conditions: time 19.0 hrs
Staphylococcus aureus [16] = experiment: Antibacterial activity against Methicillin-resistant Staphylococcus aureus infected in C57BL/6 mouse assessed as reduction in inflammatory injury in lung at 10 mg/kg,ip administrated 5 hrs after bacterial infection measured after 24 hrs by hematoxylin and eosin staining based analysis; assay type: functional, organism-based; conditions: time 19.0 hrs
Klebsiella pneumoniae = experiment: Antimicrobial activity against Klebsiella pneumoniae ATCC 27736 assessed as inhibition of microbial growth at <= 200 ug/ml incubated for 18 hrs by micro-broth dilution method; assay type: functional, organism-based; conditions: dose <= 200.0 µg/ml
Peritoneal macrophage [17] = experiment: Immunoregulatory activity in mouse Peritoneal macrophage assessed as upregulation of IkappaBalpha phosphorylation incubated for 1 hr by Western blotting analysis; assay type: functional, cell-based
Staphylococcus aureus [18] = experiment: Antibacterial activity against Staphylococcus aureus ATCC 25923 infected in C57BL/6 mouse assessed as reduction in IL-1beta level in peritoneal fluid at 10 mg/kg,ip pre-administrated 5 hrs before bacterial infection measured after 24 hrs by ELISA; assay type: functional, organism-based; conditions: time 29.0 hrs
Mus musculus [19] = experiment: Anticoagulation activity in mouse infected with Carbapenem-resistant Escherichia coli assessed as increase in plasma APC expression at 10 mg/kg,ip pre-administrated 5 hrs before bacterial infection measured after 24 hrs by ELISA; assay type: functional, organism-based; conditions: time 29.0 hrs
Enterococcus faecalis = experiment: Antimicrobial activity against Enterococcus faecalis ATCC 29212 assessed as inhibition of microbial growth at <= 200 ug/ml incubated for 18 hrs by micro-broth dilution method; assay type: functional, organism-based; conditions: dose <= 200.0 µg/ml
Escherichia coli [20] = experiment: Antibacterial activity against Escherichia coli ATCC 25922 infected in C57BL/6 mouse assessed as reduction in IL-1beta level in peritoneal fluid at 10 mg/kg,ip pre-administrated 5 hrs before bacterial infection measured after 24 hrs by ELISA; assay type: functional, organism-based; conditions: time 29.0 hrs
Morganella morganii = experiment: Antimicrobial activity against Morganella morganii ATCC25830 assessed as inhibition of microbial growth at <= 200 ug/ml incubated for 18 hrs by micro-broth dilution method; assay type: functional, organism-based; conditions: dose <= 200.0 µg/ml
Mus musculus [21] = experiment: Anticoagulation activity in mouse infected with Methicillin-resistant Staphylococcus aureus assessed as increase in plasma APC expression at 10 mg/kg,ip pre-administrated 5 hrs before bacterial infection measured after 24 hrs by ELISA; assay type: functional, organism-based; conditions: time 29.0 hrs
Staphylococcus aureus [22] = experiment: Antibacterial activity against Staphylococcus aureus ATCC 25923 infected in C57BL/6 mouse assessed as reduction in TNF-alpha level in serum at 10 mg/kg,ip administrated 5 hrs after bacterial infection measured after 24 hrs by ELISA; assay type: functional, organism-based; conditions: time 19.0 hrs
Escherichia coli [23] = experiment: Antibacterial activity against Carbapenem-resistant Escherichia coli infected in C57BL/6 mouse assessed as increase in survival rate at 10 mg/kg,ip administrated 5 hrs after bacterial infection measured after 7 days; assay type: functional, organism-based; conditions: time 7.0 day
Neutrophil [24] = experiment: Induction of chemotaxis in mouse bone marrow derived neutrophil assessed as increase in neutrophil migration at 100 ug/ml preincubated with WRW4 for 30 mins followed by compound addition measured after 8 hrs by crystal violet staining based indirect transwell assay; assay type: functional, cell-based; conditions: dose 100.0 µg/ml
Mus musculus [25] = experiment: Anticoagulation activity in mouse infected with Carbapenem-resistant Escherichia coli assessed as increase in plasma APC expression at 10 mg/kg,ip administrated 5 hrs after bacterial infection measured after 24 hrs by ELISA; assay type: functional, organism-based; conditions: time 19.0 hrs
Peritoneal macrophage [26] = experiment: Induction of chemotaxis in mouse Peritoneal macrophage assessed as upregulation of CXCL2 gene expression incubated for 6 hrs by qPCR analysis; assay type: functional, cell-based
Peritoneal macrophage [27] = experiment: Induction of chemotaxis in mouse Peritoneal macrophage assessed as upregulation of MCP-1 production at 100 ug/ml preincubated with MTS510 followed by compound addition by ELISA; assay type: functional, cell-based; conditions: dose 100.0 µg/ml
Peritoneal macrophage [28] = experiment: Immunomodulatory activity in mouse Peritoneal macrophage assessed as decrease in LPS-induced TNF-alpha production at 25 to 100 ug/ml incubated for 6 hrs by ELISA; assay type: functional, cell-based; conditions: dose 25-100 µg/ml

## CC[C@H](C)[C@H](NC(=O)[C@@H]1CSSC[C@H](NC(=O)[C@H](CCC(=O)O)NC(=O)[C@@H](NC(=O)[C@H](CCCCN)NC(=O)[C@H](Cc2c[nH]cn2)NC(=O)[C@@H](NC(=O)[C@H](CCCCN)NC(=O)[C@H](CCC(=O)O)NC(=O)[C@H](C)NC(=O)[C@H](CCC(=O)O)NC(=O)[C@H](CCC(=O)O)NC(=O)[C@H](CCC(=O)O)NC(=O)[C@H](C)N)[C@@H](C)O)[C@@H](C)O)C(=O)N[C@@H](CC(C)C)C(=O)N[C@@H](CCC(=O)O)C(=O)N1)C(=O)N[C@@H](Cc1ccccc1)C(=O)N[C@H](C(=O)N[C@@H](CC(C)C)C(=O)N[C@@H](CC(C)C)C(=O)N1CCC[C@H]1C(=O)N1CCC[C@@H]1C(=O)N[C@H](C)C(=O)O)[C@@H](C)O
Mus musculus [1]
  Activity: Active
Neutrophil [2]
  Activity: Active
Peritoneal macrophage [3]
  Activity: Dose-Dependent Effect
[4]
  Activity: Active
Escherichia coli [5]
  Activity: Active
[6]
  OD: 0.111
Escherichia coli [7]
  Activity: inactive
Escherichia coli [8]
  Activity: Active
Staphylococcus aureus [9]
  Activity: Active
Escherichia coli [10]
  Activity: Active
Peritoneal macrophage [11]
  Activity: inactive
[12]
  Activity: Active
[13]
  Activity: Active
Escherichia coli [14]
  Activity: Active
Mus musculus [15]
  Activity: Active
Staphylococcus aureus [16]
  Activity: Active
Klebsiella pneumoniae
  Activity: inactive
Peritoneal macrophage [17]
  Activity: Dose-Dependent Effect
Staphylococcus aureus [18]
  Activity: Active
Mus musculus [19]
  Activity: Active
Enterococcus faecalis
  Activity: inactive
Escherichia coli [20]
  Activity: Active
Morganella morganii
  Activity: inactive
Mus musculus [21]
  Activity: Active
Staphylococcus aureus [22]
  Activity: Active
Escherichia coli [23]
  Activity: Active
Neutrophil [24]
  Activity: Active
Mus musculus [25]
  Activity: Active
Peritoneal macrophage [26]
  Activity: Dose-Dependent Effect
Peritoneal macrophage [27]
  Activity: Active
Peritoneal macrophage [28]
  Activity: inactive

Source: ChEMBL document CHEMBL5543174, “A Nonbactericidal Anionic Antimicrobial Peptide Provides Prophylactic and Therapeutic Efficacies against Bacterial Infections in Mice by Immunomodulatory-Antithrombotic Duality” (J Med Chem, 2024)
